Measurements from patent publication US20260317308A1, “A SEQUENCE SELECTIVE DNA BINDING MOLECULE (SYNGRADER)” (ST. JUDE CHILDREN'S RESEARCH HOSPITAL, INC., priority 2023, published 2026).

Columns and labels:
TCF3-PBX1-HaloTag = experiment: P2RY10 luciferase reporter assay in HEK293T cells expressing Doxycycline-inducible TCF3-PBX1-HaloTag; assay type: cell-based, human
Protocol: Cells were transfected with P2RY10-Luciferase reporter plasmid DNA which contains the 282 bp P2RY10 promoter sequence cloned downstream of a minimal TATA box promoter. After 24 hours, the cells were treated with 0.70 and 1.0 μM PBX-SynTEF2 (SnTF2), SynTEF-PBX-DRG1 (DRG1), and SynTEF-PBX-DRG2 (DRG2). The SynTEF-PBX-DRG1 compound carries the Thalidomide ligand for recruitment of the Cerbelon E3-Ligase, and SynTEF-PBX-DRG2 has a VHL ligand for the recruitment of the VHL E3-Ligase. Doxycycline (DOX) was added at 0.1 ug/mL concentration to induce TCF3-PBX1-HaloTag expression, and 48 hours after DOX addition, NanoGlo Luciferase expression (Promega) was measured in the medium (Luciferase protein is secreted by the cells). Luciferase activity was calculated as Fold Change compared to “DMSO without DOX” control cells (purple bar), Error bars: Standard deviation. N>6 biological replicates.

[1] = test system: NALM6 (N6) Acute Lymphoblastic Leukemia (ALL) B cells expressing TCF3-PBX1-HaloTag; experiment: Cell viability assay (CellTiterGlo) in NALM6 ALL cells with Doxycycline-inducible TCF3-PBX1-HaloTag, co-transfected with P2RY10 and CMV luciferase reporter plasmids; assay type: cell-based; settings: for loss in cell viability: loaded on WT TR DNA-Aptamer, vs DMSO no DOX
Protocol: The N6-TCF3-PBX1-HaloTag cells were Nucleofected (Lonza) with P2RY10-Luciferase and CMV promoter Luciferase reporter plasmid DNAs. After 24 hours, cells were treated with either wildtype (WT) or Mutant (MT) Transferrin Receptor (TR) WGGWWW DNA-Aptamers pre-loaded with PBX-SynTEF-FL (SnTF-FL), SynTEF-PBX-DRG1 (DRG1), and SynTEF-PBX-DRG2 (DRG2). The WT and MT DNA-Aptamers contain WGGWWW tail duplex DNA sequences that bind the PBX-SynTEF payloads, but only WT DNA-Aptamers can bind to TR present on the cell surface of NALM6 ALL cells, resulting in TR-mediated cellular internalization of the polyamide compounds. The MT DNA-Aptamer, has a GG to AA dinucleotide substitution which prevents binding to the TR (*see Cheng et al, 2022). Thus, cells treated with the MT DNA-Aptamer-SynTEF complexes serve as negative controls, since without a functional Aptamer, it is unlikely that the polyamides are taken up by the NALM6 cells. Doxycycline (DOX) was added at 0.1 ug/mL concentration to induce TCF3-PBX1-HaloTag expression, and 48 hours after DOX addition, cell viability was measured using CellTiterGlo reagent (Promega) which detects ATP present only in live cells. CellTiterGlo activity was calculated as Fold Change compared to “DMSO no DOX” treated cells which had the highest cell viability (dark blue bars). Error bars: Standard deviation. N>6 biological replicates.

## CSCCC(NC(=O)C(Cc1c[nH]c2ccccc12)NC(=O)C1CCCN1C(=O)C(Cc1ccc(O)cc1)NC(=O)C(Cc1ccccc1)NC(C)=O)C(=O)NC(CCCCNC(=O)CCOCCOCCOCCOCCOc1cccc2c1C(=O)N(C1CCC(=O)NC1=O)C2=O)C(=O)NCC(=O)NCCOCCOCCOCCC(=O)NCCCN(C)CCCNC(=O)CCNC(=O)c1cc(NC(=O)c2cc(NC(=O)c3cc(NC(=O)c4cc(NC(=O)CCCNC(=O)c5cc(NC(=O)c6cc(NC(=O)c7nc(NC(=O)c8nccn8C)cn7C)cn6C)cn5C)cn4C)cn3C)cn2C)cn1C (stereo not drawn) [SynTEF-PBX-DRG1]
TCF3-PBX1-HaloTag; both 0.70 and 1.0 μM, with DOX
  further increase of Luciferase expression above DMSO plus DOX baseline (in words): fail to further increase Luciferase expression
TCF3-PBX1-HaloTag; cell-based reporters
  activity of the oncogenic TCF3-PBX1 fusion in cell-based reporters (in words): reduced activity
[1]; NALM6 cells, without DOX
  toxicity to the cells (in words): toxic to the cells but only when internalized
[1]; with DOX 0.1 ug/mL, 48 h
  loss in cell viability: ~ 85%
[1]; with DOX, loaded on MT DNA-Aptamer (negative control)
  cell viability compared to +DOX DMSO and +DOX SynTF-FL cells (in words): comparable viability
[1]; without DOX, both P2RY10 and CMV nucleofected cells
  loss in cell viability: 70-80%
